Where a name gives a salt, the structure may show the parent alone.

In one assay the test system is HUVECs. Put plainly: XTT cell viability assay (Example 106). It is filed as cell-based, human. To be noted: Homo sapiens, HUVEC, 72 hours, read-out: Inhibition of HUVEC cell prolifiration (IC50). The method, then: Some compounds described by the general structure (B) were tested for cell viability. XTT assay: HUVECs were seeded at 10,000 cells/well of a tissue culture treated 96-well plate treated with collagen type I and grown overnight in the complete EGM-2 media as described above. The following morning, the inhibitors were serial diluted with DMSO and added to the cells with a final DMSO concentration of 1%. After 72 hours cell viability was measured with an XTT assay (Sigma, St. Louis, Mo.). The cells were also photographed to compare morphological differences to the XTT trends observed. Determination of the IC50 values was performed with quantitative software (Prism software package, GraphPad Software, San Diego Calif.).

Assay [1] relates to p-MEK and p-ERK levels in HUVECs. Kind of assay: Western Blot, inhibition of MAPK pathway in cellular assay (Example 105). It counts as cell-based, human. The following applies: 50 ng/ml VEGF or FGF. Here is the method: Some compounds described by the general structure (B) were tested for inhibition of MAPK pathway in cellular assay. Western Blot: Early passage primary human umbilical vein endothelial cells (HUVECs) were maintained in EGM-2 containing SingleQuots (Cambrex, East Rutherford, N.J.), 10% FBS, 10 mM HEPES, and 50 μg/ml gentamicin. Prior to treatment of the cells with inhibitor, the HUVECs were starved for 18 h by replacing serum-containing complete media with serum-free and SingleQuot-free media. The starved cells were pre-treated with inhibitors for 60 min at various concentrations (0-20 μM). Next the HUVECs were treated with 50 ng/ml VEGF or FGF (Peprotech, Rocky Hill, N.J.) for 6 min and the cells were immediately washed with ice-cold PBS. Cells were lysed with ice-cold RIPA buffer containing 100 mM Tris pH 7.5, 150 mM NaCl, 1 mM EDTA, 1% deoxycholate, 1% Triton X-100, 0.1% SDS, 2 mM PMSF, one Complete-Mini protease inhibitor tablet (Roche, Indianapolis, Ind.; 1 tablet/7 ml of lysis buffer) and the phophatase inhibitors NaF (500 mM) and orthovanadate (1 mM). The cells were scraped and lysates transferred and centrifuged at 15,000 g for 10 main. Supernatants were transferred to new tubes and protein concentration was quantitated using the BCA protein reagent (Pierce, Rockford, Ill.). Cell lysates containing 20 μg of total protein were separated by 10% SDS-PAGE, transferred to nitrocellulose, and blocked in 5% milk in TBST. Anti phospho-ERK Thr 202/Tyr 204 (Cell Signaling, Beverly, Mass.), anti-phospho-MEK Ser217/221 (Cell Signaling), and c-Raf (BD Biosciences Pharmingen, San Diego, Calif.) used as primary antibodies were detected with horseradish peroxidase-conjugated goat anti-mouse or rabbit secondary antibodies and bands were visualized using the SuperSignal West Pico chemiluminescence reagent system (Pierce) and Kodak X-ray film (Rochester, N.Y.).

Regarding `O=C(Nc1nnc(-c2ccc(Oc3cccnc3)cc2)o1)c1ccc(Br)cc1` [4-Bromo-N-{5-[4-(pyridin-3-yloxy)phenyl]-1,3,4-oxadiazol-2-yl}-benzamide], the IC50 with HUVECs was over 40 µM. Further, in assay [1] (at 10 uM), the “Western Blot” value was “not active at 10 uM”.
For `O=C(Nc1nnc(-c2ccc(Oc3cccnc3)cc2)o1)c1cccc(OC(F)(F)F)c1` [N-{5-[4-(pyridin-3-yloxy)phenyl]-1,3,4-oxadiazol-2-yl}-3-(trifluoromethoxy)-benzamide], in that order: over 40 µM and “not active at 10 uM”.
On to `Nc1ccc(Oc2ccc(Nc3nnc(-c4ccc(Cl)c(C(F)(F)F)c4)[nH]3)cc2)nn1` [6-[4-({5-[4-chloro-3-(trifluoromethyl)phenyl]-4H-1,2,4-triazol-3-yl}amino)phenoxy]pyridazin-3-amine trifluoroacetate salt], for which, in the assay on HUVECs, the IC50 is over 40 µM. Further, the “Western Blot” value in assay [1] (at 5 uM) was “active at 5 uM”.
Regarding `O=C(Nc1nnc(-c2ccc(Oc3cccnc3)cc2)o1)c1ccc(F)c(C(F)(F)F)c1` [4-Fluoro-N-{5-[4-(pyridin-3-yloxy)phenyl]-1,3,4-oxadiazol-2-yl}-3-(trifluoromethyl)-benzamide], the IC50 in the assay with HUVECs is about 20 µM. Besides, the “Western Blot” value in assay [1] (at 10 uM) is listed as “active at 10 uM”.
With `FC(F)(F)c1cccc(Nc2nnc(-c3ccc(Oc4cccnc4)cc3)o2)c1` [5-[4-(Pyridin-3-yloxy)phenyl]-N-[3-trifluoromethyl-phenyl]-1,3,4-oxadiazol-2-amine], the IC50 with HUVECs is over 20 µM. Further, the “Western Blot” value in assay [1] (at 10 uM) is listed as “active at 10 uM”.
On to `Nc1cc(Oc2cccc(-c3nnc(Nc4ccc(Cl)c(C(F)(F)F)c4)[nH]3)c2)nc(N)n1` [6-{3-[5-(4-chloro-3-trifluoromethyl-phenylamino)-4H-[1,2,4]triazol-3-yl]-phenoxy}-pyrimidine-2,4-diamine trifluoroacetic acid salt], for which, in the assay with HUVECs, the IC50 is 0.404 µM. The “Western Blot” value in assay [1] (at 5 uM) is recorded as “active at 5 uM”.
On to `CNC(=O)c1cc(Oc2ccc(-c3nnc(Nc4ccc(Cl)c(C(F)(F)F)c4)o3)cc2)ccn1` [4-[4-(5-{[4-chloro-3-(trifluoromethyl)phenyl]amino}-1,3,4-oxadiazol-2-yl)phenoxy]-N-methylpyridine-2-carboxamide trifluoroacetate salt], for which the IC50 with HUVECs amounted to 5.6 µM. Also, the “Western Blot” value in assay [1] (at 5 uM) is listed as “active at 5 uM”.
Consider `FC(F)(F)c1cccc(Nc2nnc(-c3ccc(Oc4cncnc4)cc3)o2)c1` [5-[4-(Pyrimidin-5-yloxy)phenyl]-N-[3-(trifluoromethyl)phenyl]-1,3,4-oxadiazol-2-amine], for which the IC50 with HUVECs was over 10 µM. Further, the “Western Blot” value in assay [1] (at 5 uM) is “active at 5 uM”.
For `FC(F)(F)c1cc(-c2nnc(Nc3ccc(Oc4cncnc4)cc3)[nH]2)ccc1Cl` [5-[4-chloro-3-(trifluoromethyl)phenyl]-N-[4-(pyrimidin-5-yloxy)phenyl]-4H-1,2,4-triazol-3-anine trifluoroacetate salt], in that order: over 10 µM and “active at 5 uM”.
In the case of `Nc1cc(Oc2ccc(-c3nnc(Nc4ccc(Cl)c(C(F)(F)F)c4)[nH]3)cc2)nc(N)n1` [6-{4-[5-(4-chloro-3-trifluoromethyl-phenylamino)-4H-[1,2,4]-triazol-3-yl]-phenoxy}-pyrimidine-2,4-diamine], the IC50 in the assay with HUVECs stood at 0.089 µM. Moreover, the “Western Blot” value in assay [1] (at 5 uM) was “active at 5 uM”.
With `FC(F)(F)c1cc(Nc2nnc(-c3ccc(Oc4cccnc4)cc3)[nH]2)ccc1Cl` [(4-chloro-3-trifluoromethyl-phenyl)-{5-[4-(pyridin-3-yloxy)-phenyl]-4H-[1,2,4]triazol-3-yl}-amine], the IC50 with HUVECs came out at 1.81 µM. Also, the “Western Blot” value in assay [1] (at 5 uM) is “active at 5 uM”.
For `Clc1cccc(Nc2nnc(-c3ccc(Oc4cncnc4)cc3)o2)c1` [5-[4-(Pyrimidin-5-yloxy)phenyl]-N-[3-chloro-phenyl]-1,3,4-oxadiazol-2-amine] the same measures were about 20 µM and “active at 5 uM”.

(Values after patent US8372971B2, “Heterocyclic compounds and methods of use” (TargeGen, Inc., priority 2004, dated 2013).)
